Data published in patent publication US20190350940A1, “PLATINUM COMPOUNDS, COMPOSITIONS, AND USES THEREOF” (priority 2015, published 2019).
Entries after “also recorded” stand apart in the source; their conditions may differ.

Key:
male and female rats = experiment: Repeat-dose intravenous toxicity study in rats with a 3-week recovery period (Compound 8-TX-007); format: in vivo
Description: Groups of 30 animals (15/sex) each received vehicle control or Compound 8 9, 14, 19, or 6 mg/kg. Groups of 20 animals (10/sex) received Compound 8 9, 14, 19, or 6 mg/kg and 6 animals (3/sex) received vehicle control in the TK portion of the study.
Assessment of toxicity was based on mortality, clinical observations, functional observational battery evaluations, body weight, and food consumption and efficiency; ophthalmoscopic examinations; and clinical and anatomical pathology. RBC pellet analysis was conducted for total platinum content.
Toxicity and TK assessments were conducted for the test article and positive control.

CYP1A2 = biological target: T1, CYP1A2 (Homo sapiens, UniProt P05177); experiment: CYP inhibition, 1A2; format: in vitro ADME
T1 construct: host or cells: microsomes are mentioned

hERG = biological target: T2, hERG (Homo sapiens, UniProt Q12809); experiment: Binding to membrane preparations of hERG using a radiolabeled antagonist
T2 construct: host or cells: membrane preparations
Description: An in vitro evaluation of the binding of Compound 8 to membrane preparations of hERG using a radiolabeled antagonist was performed.

Microsomal stability = format: in vitro ADME; conditions: NADPH-free controls
Excerpt: Microsomal stability could not be performed because negative controls failed. […] This is consistent with literature reports that microsomes contain protein thiols (Liebler D C, Meredith M J, Guengerich F P. Formation of glutathione conjugates by reactive metabolites of vinylidene chloride in microsomes and isolated hepatocytes. Cancer Res 1985; 45(1):186-93, the contents of which are incorporated herein by reference in their entirety), would react with Compound 8. CYP inhibition was studied to determine whether Compound 8 has an inhibitory effect on microsomes.

physchem = format: physicochemical; conditions: for solubility at 1 hr: pH 4, aqueous buffer, thermodynamic from solid, Saturated solubility
Description: The formulations were prepared by stirring at room temperature for 1 hr. They were protected from light to minimize the formation of the amine product (Impurity 1) during the formulation.
The drug product process begins by preparation of a chilled, solution of 2.5% mannitol and 5 mM citrate buffer (pH about 4-5) solution to which Compound 8 drug substance is added at concentration of 5 mg/mL. […] The bulk solution is filter (0.2 μm) sterilized, aseptically filled into vials, and lyophilized. To minimize Compound 8 degradation, the bulk solution is maintained chilled and protected from light during processing. Lyophilizing Compound 8 as a dry powder was selected as the best means to minimize hydrolysis during storage. Finally, filter sterilization was chosen as the most benign means to sterilize the drug product.

[1] = Temperature effects: mock manufacturing process; format: physicochemical; conditions: after 24 hrs
Description: In order to determine the effect of both temperature and light on the formation of the two main degradation products, mock manufacturing processes and mock clinical dilution studies were conducted. The mock process was simulated by formulating and holding the Compound 8 drug product at room temperature or under cold conditions (e.g. ice bath) for discreet amounts of time that would simulate the large scale manufacturing process. Once the samples went through the mock manufacturing process, they were stored at −20° C., as a frozen solution, and then thawed as they would be in the clinic prior to administration. For the mock clinical dilution study, each solution was diluted in saline, at the lowest dilution factor expected in the clinic. Then the diluted formulations were stored in syringes at room temperature and then assayed for potency and total impurities (from both procedures) at the end of the day.
For the mock manufacturing process, the room temperature samples were formulated and stored at room temperature for a total of 8 hrs and then refrigerated overnight. In contrast, the cold samples were formulated on ice, stored in the 2-8° C. for a total of 8 hrs, and at the end of the day frozen to −20° C.

human plasma = experiment: In vitro plasma protein binding, human plasma (Compound 8-DMPK-008); format: in vitro ADME; conditions: incubation 10 minutes at 37° C.
CYP2C9 = CYP2C9 (Homo sapiens, UniProt P11712); experiment: CYP inhibition, 2C9; format: in vitro ADME
[2] = pH stability: acidifying agents versus citrate buffered saline; format: physicochemical; conditions: room temperature
Description: In order to determine whether a buffer would be required to maintain stability, two acidifying agents, hydrochloric acid and citric acid, were evaluated with respect to a control formulation in 5 mM citrate buffered saline. All vehicles were brought to a pH of 4 in saline and each formulation was made at 1 mg/ml concentration in each vehicle.

[3] = Total plasma and plasma ultrafiltrate platinum pharmacokinetics in mouse; format: in vivo
Description: Nonclinical studies were performed to evaluate the PK of platinum in plasma after IV administration of Compound 8 in the mouse, rat, and dog. The analyses included platinum levels both in total plasma as well as plasma ultrafiltrate.
Compound 8 was administered in 2 different formulations in mice. The formulation used in pharmacology studies was 5% dimethyl sulfoxide (DMSO)/10% Solutol/Saline, and the formulation used in PK studies was 5 mM citrate pH about 4; this latter formulation is that used in GLP toxicology studies in the rat and is the human clinical formulation.

[4] = test system: BxPC-3 human pancreatic adenocarcinoma; experiment: BxPC-3 pancreatic xenograft model; format: in vivo, mouse; conditions: female, Crl:NU(NCr)-Foxn1^nu nude, mouse, in vivo, 20 mg/kg, 13 day
Description: The effect of Compound 8 on TGI was evaluated in the BxPC-3 human pancreatic adenocarcinoma nude mouse (female Crl:NU(NCr)-Foxn1^nu) xenograft model.

CYP2D6 = CYP2D6 (Homo sapiens, UniProt P10635); experiment: CYP inhibition, 2D6; format: in vitro ADME
CYP2C8 = CYP2C8 (Homo sapiens, UniProt P10632); experiment: CYP inhibition, 2C8; format: in vitro ADME
[5] = formulated under cold conditions

T2 sequence (Q12809 whole entry): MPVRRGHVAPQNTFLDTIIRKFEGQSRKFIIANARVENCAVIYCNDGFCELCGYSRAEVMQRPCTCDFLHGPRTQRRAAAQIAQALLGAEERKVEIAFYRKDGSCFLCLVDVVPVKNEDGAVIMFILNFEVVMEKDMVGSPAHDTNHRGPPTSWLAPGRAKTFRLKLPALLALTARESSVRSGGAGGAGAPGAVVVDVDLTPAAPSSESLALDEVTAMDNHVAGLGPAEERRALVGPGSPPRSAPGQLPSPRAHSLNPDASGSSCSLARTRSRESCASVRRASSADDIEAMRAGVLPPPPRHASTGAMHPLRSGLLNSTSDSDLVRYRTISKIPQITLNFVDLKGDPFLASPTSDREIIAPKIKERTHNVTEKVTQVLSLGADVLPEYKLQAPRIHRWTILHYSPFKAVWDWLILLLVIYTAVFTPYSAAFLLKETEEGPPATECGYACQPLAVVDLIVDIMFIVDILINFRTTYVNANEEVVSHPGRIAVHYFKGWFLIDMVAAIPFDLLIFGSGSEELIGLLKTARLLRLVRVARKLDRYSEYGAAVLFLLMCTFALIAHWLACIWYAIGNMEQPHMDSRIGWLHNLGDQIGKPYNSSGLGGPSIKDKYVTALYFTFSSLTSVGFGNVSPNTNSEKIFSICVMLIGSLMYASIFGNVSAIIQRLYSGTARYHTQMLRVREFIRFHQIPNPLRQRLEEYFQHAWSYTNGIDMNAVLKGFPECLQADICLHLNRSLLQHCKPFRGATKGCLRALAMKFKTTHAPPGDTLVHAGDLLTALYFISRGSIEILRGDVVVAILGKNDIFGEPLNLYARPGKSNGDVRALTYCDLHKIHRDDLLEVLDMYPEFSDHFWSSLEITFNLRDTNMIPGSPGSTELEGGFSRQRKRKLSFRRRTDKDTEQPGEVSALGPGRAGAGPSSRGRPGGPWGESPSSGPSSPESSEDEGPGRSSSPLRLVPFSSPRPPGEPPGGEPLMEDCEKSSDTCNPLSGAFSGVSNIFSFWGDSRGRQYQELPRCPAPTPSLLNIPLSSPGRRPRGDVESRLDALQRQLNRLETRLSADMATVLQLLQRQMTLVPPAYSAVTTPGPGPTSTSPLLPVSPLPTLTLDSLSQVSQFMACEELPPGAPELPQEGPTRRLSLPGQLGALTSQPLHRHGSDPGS
T1 sequence (P05177 whole entry): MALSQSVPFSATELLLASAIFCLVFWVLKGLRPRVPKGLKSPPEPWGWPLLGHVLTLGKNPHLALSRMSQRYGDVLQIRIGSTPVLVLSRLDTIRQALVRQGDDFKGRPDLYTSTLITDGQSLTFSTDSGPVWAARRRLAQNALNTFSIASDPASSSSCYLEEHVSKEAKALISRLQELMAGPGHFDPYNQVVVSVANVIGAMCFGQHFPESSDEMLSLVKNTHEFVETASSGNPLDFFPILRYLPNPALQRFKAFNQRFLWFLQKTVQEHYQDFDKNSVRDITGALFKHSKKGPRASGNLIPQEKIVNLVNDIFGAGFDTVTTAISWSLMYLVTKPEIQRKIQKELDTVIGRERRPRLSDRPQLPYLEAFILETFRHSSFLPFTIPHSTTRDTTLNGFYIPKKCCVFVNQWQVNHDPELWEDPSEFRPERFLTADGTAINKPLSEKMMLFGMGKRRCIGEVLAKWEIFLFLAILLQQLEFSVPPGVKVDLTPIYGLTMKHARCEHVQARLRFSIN
Chain of CYP2D6 (P10635 whole entry): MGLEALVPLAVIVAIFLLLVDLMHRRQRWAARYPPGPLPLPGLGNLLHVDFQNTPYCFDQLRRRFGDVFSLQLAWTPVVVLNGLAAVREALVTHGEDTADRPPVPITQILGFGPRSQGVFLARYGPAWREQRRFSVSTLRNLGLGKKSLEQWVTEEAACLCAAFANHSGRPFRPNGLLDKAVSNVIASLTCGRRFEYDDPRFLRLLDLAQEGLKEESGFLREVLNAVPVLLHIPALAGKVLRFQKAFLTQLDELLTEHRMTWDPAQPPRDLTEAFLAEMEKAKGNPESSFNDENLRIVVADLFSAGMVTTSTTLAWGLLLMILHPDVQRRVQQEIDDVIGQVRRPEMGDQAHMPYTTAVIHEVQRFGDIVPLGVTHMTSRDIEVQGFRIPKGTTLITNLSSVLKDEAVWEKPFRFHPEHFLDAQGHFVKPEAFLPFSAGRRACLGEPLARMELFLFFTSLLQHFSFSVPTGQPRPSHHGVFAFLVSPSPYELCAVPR
Chain of CYP2C9 (P11712 whole entry): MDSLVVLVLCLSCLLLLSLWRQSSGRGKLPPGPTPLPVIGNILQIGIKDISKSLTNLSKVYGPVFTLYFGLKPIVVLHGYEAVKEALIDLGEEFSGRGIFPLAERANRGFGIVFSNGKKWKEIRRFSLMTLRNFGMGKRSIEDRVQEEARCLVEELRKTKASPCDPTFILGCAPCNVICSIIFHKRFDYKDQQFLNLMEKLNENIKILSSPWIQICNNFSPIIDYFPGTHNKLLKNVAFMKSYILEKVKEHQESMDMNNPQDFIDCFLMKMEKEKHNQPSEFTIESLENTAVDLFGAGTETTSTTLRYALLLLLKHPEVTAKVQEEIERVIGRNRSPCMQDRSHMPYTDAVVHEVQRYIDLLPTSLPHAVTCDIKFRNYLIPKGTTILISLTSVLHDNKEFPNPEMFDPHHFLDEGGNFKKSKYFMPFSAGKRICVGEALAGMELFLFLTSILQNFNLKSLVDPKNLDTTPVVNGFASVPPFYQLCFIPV
Chain of CYP2C8 (P10632 whole entry): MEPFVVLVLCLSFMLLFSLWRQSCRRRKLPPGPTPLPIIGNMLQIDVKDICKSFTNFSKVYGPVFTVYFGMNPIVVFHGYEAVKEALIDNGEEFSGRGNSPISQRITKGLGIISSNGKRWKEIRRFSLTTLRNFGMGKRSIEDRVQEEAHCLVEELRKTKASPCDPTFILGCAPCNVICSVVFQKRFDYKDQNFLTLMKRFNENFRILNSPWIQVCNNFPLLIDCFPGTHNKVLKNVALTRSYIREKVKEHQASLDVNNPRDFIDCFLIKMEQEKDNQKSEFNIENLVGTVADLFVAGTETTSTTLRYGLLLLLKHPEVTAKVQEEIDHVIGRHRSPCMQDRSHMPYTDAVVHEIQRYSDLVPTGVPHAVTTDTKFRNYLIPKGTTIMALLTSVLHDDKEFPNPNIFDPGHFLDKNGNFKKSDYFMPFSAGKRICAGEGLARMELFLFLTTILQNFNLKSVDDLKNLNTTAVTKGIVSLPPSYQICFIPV

CC(=O)[O][Pt]([NH2])([NH2])([Cl])([Cl])[O]C(=O)NCCCCCN1C(=O)C=CC1=O [Compound 8]
Body weights (decreased relative to vehicle) (male and female rats; Compound 8 9 mg/kg): transiently through Day 7
Local tolerance: microscopic evaluation of the last injection site (male and female rats; Compound 8 19 mg/kg, terminal males and females): slightly increased incidence and/or severity of perivascular subacute/chronic inflammation and/or hemorrhage
Changes attributable to altered renal function (male and female rats; Compound 8 9, 14, 19 mg/kg): noted in both sexes at all Compound 8 dose levels
Deaths, clinical observations, functional observation battery (FOB), ophthalmic examinations (male and female rats; Compound 8 9, 14, 19 mg/kg): no deaths and no effects were noted
Clinical Chemistry (moderate to marked) (male and female rats; Compound 8, 19 mg/kg): Creatinine↑, AST↑, ALT↑,; also recorded: Amylase↑, Lipase↑,; also recorded: Cholesterol↑ Globulin↑
Clinical observations, FOB and ophthalmic observations (male and female rats; Compound 8, 19 mg/kg): No adverse effects
Mortality (male and female rats; Compound 8, 19 mg/kg): No unscheduled deaths
Pathology: Kidneys (moderate or severe) (male and female rats; Compound 8, 19 mg/kg): Tubule degeneration/necrosis
Pathology: Organ weights (male and female rats; Compound 8, 19 mg/kg): Thymus↓
Pathology: Stomach nonglandular (male and female rats; Compound 8, 19 mg/kg): erosion ulcer (1M), no
Pathology: Testes (male and female rats; Compound 8, 19 mg/kg): Degeneration/atrophy (1M)
Pathology: Thymus (male and female rats; Compound 8, 19 mg/kg): (1M), (moderate at terminal,
Microscopic changes, kidney (male and female rats; rat, in vivo): kidney tubular degeneration/necrosis and/or regeneration
Organ weight changes (male and female rats; rat, in vivo, 14 mg/kg): decreased absolute and relative thymus weights in males and females
Increase in urea nitrogen (male and female rats; rat, in vivo, 19 mg/kg): +14%
IC50 (CYP1A2): 550 nM
hERG binding finding (hERG; 3 uM, conjugated to human serum albumin): no evidence for significant cardiovascular toxicity
hERG binding finding (hERG; 10 uM, unconjugated to human serum albumin): no evidence for significant cardiovascular toxicity
Stability in microsome preparations (Microsomal stability): below the limit of quantitation; also recorded: disappeared quickly
solubility at 1 hr (physchem; overall estimate): ~9 mg/mL
solubility at 1 hr (physchem; range of five different lots): 8 to 23 mg/mL
solubility (physchem; pH 4.5, aqueous buffer, Saturated solubility of the drug substance): 16 to 17 mg/mL
Formation of Impurity 1 ([1]; formulated at room temperature): ~0.8%
Formation of Impurity2 ([1]; formulated at room temperature): ~0.3%
Formation of Impurity 1 [1, 5]: < 0.3%
Formation of Impurity2 [1, 5]: ~0.1%
Protein bound (human plasma): > 99%
IC50 (CYP2C9): 950 nM
Impurity 2 formation ([2]; 1 mg/ml in 5 mM citrate buffered saline pH 4, 24 hr): inhibits the formation of Impurity 2
Impurity 2 formation ([2]; 1 mg/ml in saline brought to pH 4 with hydrochloric acid, after 24 hrs): over 2 % by area
Dose (MTD) [3]: 41.8 (MTD) mg/m^2
Mean difference of AUC(0-48h) between the 2 formulations ([3]; in vivo): 5%
Portion of platinum in circulation free in the ultrafiltrate ([3]; in vivo): < 1%
Ultrafiltrate platinum to total ratio at Cmax ([3]; in vivo): 0.06
Ultrafiltrate to total AUC ratio ([3]; in vivo): 0.0056
Plasma free platinum AUC ([3]; in vivo, iv): 20.6 µM·h
Plasma free platinum Cmax ([3]; in vivo, iv): 15.9 µM
Treatment-related side effects [4]: swollen tails on Day 13 in all animals
IC50 (CYP2D6): 720 nM
IC50 (CYP2C8): 680 nM
